Values of other authors, collected in patent publication US20240180842A1, “COLON TARGETED DRUG DELIVERY” (Axial Therapeutics, Inc., priority 2022, published 2024).

System: ASD individuals with high irritability (ABC-I≥18)
Details: phase 3 study, drug arms; placebo arm 34.7%

SMILES: O=C1CCc2ccc(OCCCCN3CCN(c4cccc(Cl)c4Cl)CC3)cc2N1 [aripiprazole]
- response rate (25% improvement in ABC-I scores and CGI-I≤2): 49-56%
